The source of these data is PubChem BioAssay AID1996.

Usually kinetic solubility stands for the concentration staying in solution when a stock, usually in DMSO, is diluted into the medium.

In brackets after ≈: the same amount, converted by molar mass.

The conditions of the series: buffer; pH 7.4; 200.0 µM.
In the case of `CC(C)Oc1c(N2CCOCC2)c(=O)c1=O`, the solubility (kinetic) is greater than 33.8 µg/mL. Consider `CN(C(=O)CN1C(=O)c2ccccc2S1(=O)=O)C1CCCCC1`, for which the kinetic solubility is greater than 50.5 µg/mL. `OCCC1CN(Cc2cccn2-c2ncccn2)CCN1C1CCCC1` (stereo not drawn) showed a kinetic solubility of 51.5 µg/mL (≈ 145 µM). For `COCc1cc(C)nc(SCc2ccc(F)cc2)c1C#N` the value was 1.1 µg/mL (≈ 3.64 µM); for `Cc1noc(NS(=O)(=O)c2ccc(N)cc2)c1C`, greater than 40.1 µg/mL; for `O=C(COc1cc(Cl)ccc1Cl)N1CCNC1=O`, greater than 43.4 µg/mL. For `Cn1ncc(C(=O)N=S(C)(=O)c2ccccc2)c1[N+](=O)[O-]` (stereo not drawn) the value was greater than 46.2 µg/mL; for `Cn1cc(C=C2C(=O)NC(=O)NC2=O)c2ccccc21`, 2.6 µg/mL (≈ 9.66 µM). The result for `NCCCS(=O)(=O)O.O.[Na+]` reads 2.9 µg/mL; that for `O=C(NC1CC1)c1nc(Cn2cc([N+](=O)[O-])cn2)no1`, greater than 41.7 µg/mL.

As for `CCCNC(=O)Nc1nc2ccccc2s1`, the kinetic solubility was 34 µg/mL (≈ 144 µM). As for `CN(Cc1ccccc1)C(=O)COC(=O)c1cc2ccccc2oc1=O`, the solubility (kinetic) was greater than 52.7 µg/mL. For `COc1cccc(NC(=O)CCN2CCOCC2)c1.Cl` the value was greater than 45.1 µg/mL; for `Cc1c(C)c2ccc(OCC(=O)N3CCOCC3)c(C)c2oc1=O`, greater than 49.7 µg/mL; for `Cc1c(C(=O)N2CCCC2)oc2ccc(Br)cc12`, 25.1 µg/mL (≈ 81.4 µM). In turn, `COc1ccc(CCC(=O)NCc2cn3ccccc3n2)cc1` gave a kinetic solubility greater than 46.4 µg/mL.

The compound `COc1ccccc1OCc1nc(-c2cccc([N+](=O)[O-])c2)no1` had a solubility (kinetic) of 0.9 µg/mL (≈ 2.75 µM). For `CCOc1cc(C(=O)N2CCCN(C)CC2)cc(OCC)c1OCC` the value was greater than 52.6 µg/mL.

Take `N#Cc1c(N)n(-c2ccccc2N)c2nc3ccccc3nc12`: the solubility (kinetic) worked out at 5.4 µg/mL (≈ 18 µM). The compound `Cc1cc(C)c2nc(C)cc(Nc3ccc(C(=O)NCCO)cc3)c2c1` registered a solubility (kinetic) of 35.5 µg/mL (≈ 102 µM).

In the case of `COc1ccc(CC2SC(N)=NC2=O)cc1` (stereo not drawn), the solubility (kinetic) was greater than 35.4 µg/mL. For `O=C(/C=C/c1cccnc1)c1cccc(O)c1` the value was 29.9 µg/mL (≈ 133 µM). Consider `CCOC(=O)C1CCCN(CC(O)COCc2ccccc2OC)C1` (stereo not drawn), for which the solubility (kinetic) was greater than 52.7 µg/mL.

Take `Cc1cc(OC(=O)c2ccc(OC(C)C)cc2)c([N+](=O)[O-])c(=O)[nH]1`: the solubility (kinetic) was greater than 49.8 µg/mL. `OCCC1CN(Cc2ccc3c(c2)CCO3)CCN1C1CCCC1` (stereo not drawn) showed a kinetic solubility of 45.2 µg/mL (≈ 137 µM). The result for `COc1ccccc1Nc1nc(C)nc2c1oc1ccccc12.Cl` reads 0.5 µg/mL. For `O=C(NCc1ccco1)C1Cc2cc(Cl)ccc2O1` (stereo not drawn) the value was greater than 41.7 µg/mL; for `O=C(COC(=O)C1CC1)Nc1ccc2c(c1)OCO2`, greater than 39.5 µg/mL. For `COc1ccc2c(CC(=O)Nc3ccccc3OC)coc2c1` the value was 31.4 µg/mL (≈ 101 µM); for `CC(=O)c1ccc(N(CC(=O)NC2CCS(=O)(=O)C2)S(=O)(=O)c2ccc(C)cc2)cc1` (stereo not drawn), 10.4 µg/mL (≈ 22.4 µM).

With `NS(=O)(=O)c1ccc(CCNCC(=O)NC2CC2)cc1`, the kinetic solubility amounted to 26.3 µg/mL (≈ 88.4 µM). The result for `CCN1CCN(c2nc(Nc3ccc(OC)cc3)nc(N)c2[N+](=O)[O-])CC1` reads 49.6 µg/mL (≈ 133 µM); that for `Cc1nnc(NC(=O)C2CC(=O)N(Cc3ccccc3)C2)s1` (stereo not drawn), greater than 47.5 µg/mL; that for `O=C(O)CN1CCN(Cc2ccc(F)cc2)C1=O`, greater than 37.8 µg/mL. The result for `O=C1CSC(=S)N1c1cccc(O)c1` reads 29 µg/mL (≈ 129 µM); that for `O=C(COC(=O)c1ccc(Br)o1)Nc1ccc2c(c1)OCCO2`, 5.1 µg/mL (≈ 13.3 µM). For `Br.CC(Cc1ccc(O)cc1)NCC(O)c1cc(O)cc(O)c1` (stereo not drawn) the value was greater than 57.6 µg/mL; for `O=C(O)c1cccc(Nc2ccc([N+](=O)[O-])c3nonc23)c1`, greater than 45 µg/mL; for `CC(=O)Nc1ccc(S(=O)(=O)NCCC(=O)Nc2ncccc2C)cc1`, greater than 56.5 µg/mL. Regarding `Cc1nc2ccsc2c(=O)n1-c1ccccc1Cl`, the kinetic solubility was greater than 41.5 µg/mL. The result for `CN(C)C1(CNC(=O)Nc2ccccc2)CCCCC1` reads greater than 41.3 µg/mL; that for `CC(C)NC(=O)c1ccc(CN2CCC(Cc3ccccc3)CC2)cc1`, 47.3 µg/mL (≈ 135 µM). For `CC(C(=O)Nc1ccccn1)c1ccccc1` (stereo not drawn) the value was greater than 33.9 µg/mL; for `CC(C)(C)c1ccc(Oc2ccc(NC(=O)c3cccs3)cn2)cc1`, 1.3 µg/mL (≈ 3.69 µM); for `O=C(c1ccco1)N1CCN(C(=O)c2ccccc2OCc2ccccc2)CC1`, greater than 58.6 µg/mL. The result for `CCCOc1ccc(C(=O)NCCN2CCOCC2)cc1.Cl` reads greater than 49.3 µg/mL; that for `Cc1ccc(-n2c(C)nc3ccsc3c2=O)cc1`, greater than 38.4 µg/mL. `O=C(NC(=O)c1ccccc1)Nc1cccc(S(=O)(=O)N2CCCCC2)c1` showed a kinetic solubility of 2.2 µg/mL (≈ 5.68 µM). The result for `CCOC(=O)N1CCN(S(=O)(=O)c2ccc(C)cc2)CC1` reads 28.1 µg/mL (≈ 90 µM); that for `COc1ccc(C)cc1NC(=O)CCCN1C(=O)NC(C)(C)C1=O`, greater than 50 µg/mL. For `CC1CCCC(NC(=O)CN2C(=O)COc3ccccc32)C1C` (stereo not drawn) the value was 6.4 µg/mL (≈ 20.2 µM). On to `COC(=O)/C=C1\SC(=NC(=O)c2ccc(-c3ccccc3)cc2)NC1=O`, for which the kinetic solubility stood at 2.6 µg/mL (≈ 7.1 µM). For `CC(C)CC1(C)NC(=O)N(CC(=O)Nc2ccccc2Br)C1=O` (stereo not drawn) the value was greater than 57.3 µg/mL; for `CCOc1ccccc1C(=O)OCC(=O)NCC1CCCCC1`, greater than 47.9 µg/mL; for `COCCN(C(=O)COC(=O)/C=C/c1cccc(C(F)(F)F)c1)c1c(N)n(CC(C)C)c(=O)[nH]c1=O`, 5.7 µg/mL (≈ 11.1 µM).

Consider `CCC1CCCCN1C(=O)NC(=O)c1ccccc1` (stereo not drawn), for which the kinetic solubility was greater than 39.1 µg/mL. For `O=C1CCCN1CCC1CCCCN1Cc1nc(-c2cnccn2)no1` (stereo not drawn) the value was greater than 53.5 µg/mL. The result for `CCCC(=O)OCC(=O)Nc1ccc2c(c1)OCO2` reads 37.2 µg/mL (≈ 140 µM). The result for `CCOc1ccc(N=Cc2ccc3ccccc3c2)cc1` reads 1.5 µg/mL (≈ 5.45 µM); that for `CCOc1ccc(Cl)cc1/C=C1/C(=O)ON=C1C`, 29.3 µg/mL (≈ 110 µM).

`O=C(/C=C/c1ccc(-c2ccccc2)cc1)NCc1cccnc1`: the kinetic solubility is less than 0.3 µg/mL. The result for `COc1ccc(CCNCc2sccc2C)cc1.Cl` reads greater than 44.7 µg/mL; that for `C=CCC1(N(C(C)=O)c2ccccc2C)CCCCC1`, 6.7 µg/mL (≈ 24.7 µM).

The compound `CC1(C)CC(=O)C2=C(C1)Nc1ccccc1NC2c1ccccc1F` (stereo not drawn) yielded a kinetic solubility of 10.5 µg/mL (≈ 31.2 µM). For the compound `O=C(COc1ccc(Cl)cc1)NC1CC1`, the solubility (kinetic) was greater than 33.9 µg/mL. For `Cc1cc(Cl)c(Cl)cc1S(=O)(=O)NCCCn1ccnc1` the value was 45.2 µg/mL (≈ 130 µM). Turning to `CC1CCC(NC(=O)C2COc3ccccc3O2)CC1` (stereo not drawn), the solubility (kinetic) turned out to be 5.5 µg/mL (≈ 20 µM). For `O=C(O)c1ccc(S(=O)(=O)NCc2cccnc2)cc1`, the solubility (kinetic) is greater than 43.8 µg/mL. As to `CC(=O)Nc1nnc(SCC(=O)NC2CCCC2)s1`, the solubility (kinetic) was greater than 45.1 µg/mL. The compound `COc1ccc2[nH]c(-c3ccccc3)cc2c1` yielded a solubility (kinetic) of less than 0.5 µg/mL. For `Cn1ccnc1COc1ccc(/C=N/O)cc1` the value was greater than 34.7 µg/mL; for `CN(C)S(=O)(=O)c1cccc(NC(=O)COC(=O)c2ccc3ccccc3n2)c1`, 40 µg/mL (≈ 96.7 µM). For `CCc1ccccc1NC(=O)N1CCc2ccccc2C1` the value was greater than 42.1 µg/mL; for `COc1cccc2c1Oc1cc([N+](=O)[O-])cc(N(C)C(C)=O)c1C=C2`, 38.2 µg/mL (≈ 112 µM). As for `O=C1OCC(c2ccccc2)=C1c1ccccc1[N+](=O)[O-]`, the solubility (kinetic) is greater than 42.2 µg/mL.

In the case of `C#CCn1cc(/C=C2\NC(=O)NC2=O)c2ccccc21`, the solubility (kinetic) was 1.2 µg/mL (≈ 4.52 µM). For `Cc1cc(C)nc(Nc2ccc(Cl)cc2C)n1.Cl` the value was 21.2 µg/mL; for `CN(C)c1ccc(C(=O)OCC(=O)Nc2cccc(S(=O)(=O)N3CCCC3)c2)cc1`, 5.5 µg/mL (≈ 12.7 µM). The result for `Cc1[nH]c(=O)nc(SCc2ccc(Cl)c(Cl)c2)c1C#N` reads 3.4 µg/mL (≈ 10.4 µM); that for `C=CCn1c(SCC(=O)Nc2c(C)n(C)n(-c3ccccc3)c2=O)nnc1-c1cccnc1`, greater than 69.2 µg/mL. For `O=C(Nc1cccc(C(F)(F)F)c1)OCc1ccncc1` the value was 12.4 µg/mL (≈ 41.9 µM). As for `CCN(CC)C(=O)Cn1cc(/C=C(\C#N)C(=O)NC2CC2)c2ccccc21`, the solubility (kinetic) was 43 µg/mL (≈ 118 µM). The result for `CCC(C)N1CNc2c(c(=O)[nH]c(=S)n2-c2cccc(C)c2)C1` (stereo not drawn) reads greater than 49.6 µg/mL. For `CCOC(=O)c1cc(NC(=O)c2cccs2)ccc1N1CCOCC1` the value was 14.8 µg/mL (≈ 41.1 µM); for `O=[N+]([O-])c1cccc(-c2ncc3ccccn23)c1`, 19.1 µg/mL (≈ 79.8 µM); for `CCOc1ccccc1NC(=O)c1ccc(OCC(=O)N2CCOCC2)c(OC)c1`, greater than 62.2 µg/mL. The result for `COc1ccc(-c2cc(C(=O)NN3CCOCC3)c3ccccc3n2)cc1OC` reads greater than 59 µg/mL; that for `Cc1ccc2c(c1)N(CC(=O)N1CCCC1)C(=O)CO2`, greater than 41.1 µg/mL.

Regarding `NS(=O)(=O)c1ccc(CCNC(=O)c2cnccn2)cc1`, the solubility (kinetic) is greater than 46 µg/mL.

Turning to `C=C(C)c1cccc(C(C)(C)NC(=O)NCc2cccnc2)c1`, the solubility (kinetic) is greater than 46.4 µg/mL.

Regarding `O=c1cc(O)c2sc3nc(C(F)(F)F)c4c(c3c2[nH]1)CCCCC4`, the kinetic solubility was greater than 53.2 µg/mL. The result for `O=C(OCC(=O)N1CCCCCC1)c1ccc(Br)c(S(=O)(=O)N2CCOCC2)c1` reads greater than 73.4 µg/mL.

The compound `Cc1cc(C)c2nc(SCC(=O)Nc3cc(C)on3)c(C)cc2c1` yielded a solubility (kinetic) of 0.3 µg/mL (≈ 0.879 µM). In turn, `CC(=O)/C=C1/C(=O)Nc2ccccc21` returned a kinetic solubility greater than 28.1 µg/mL.

As to `O=C(Oc1cc(Cl)cc(Cl)c1)c1cnc2n(c1=O)CCS2`, the kinetic solubility is 43.9 µg/mL (≈ 128 µM).

`COCCOC(=O)C1=C(C)NC(=O)NC1c1cccc(F)c1` (stereo not drawn) registered a solubility (kinetic) greater than 46.2 µg/mL. The result for `Cc1cc(C)c(C)c(S(=O)(=O)Nc2cccc(S(=O)(=O)Nc3ccccc3C(=O)O)c2)c1C` reads 72.1 µg/mL (≈ 148 µM).

In turn, `CCS(=O)(=O)N1CCC(C(=O)Nc2ccc(C(C)=O)cc2)CC1` returned a solubility (kinetic) greater than 50.8 µg/mL.

On to `Fc1cccc(Nc2nc(Cl)nc(Cl)n2)c1`, for which the kinetic solubility was found to be 36.2 µg/mL (≈ 140 µM). The result for `CCCCCCc1c(C)[nH]c2nc3ccccc3n2c1=O` reads less than 0.2 µg/mL. The result for `CC(C)(C)NCC(O)COc1cccc2c1CC(O)C(O)C2` (stereo not drawn) reads greater than 46.4 µg/mL; that for `O=C(NCCOc1ccccc1)c1ccccc1[N+](=O)[O-]`, greater than 42.9 µg/mL; that for `CCC1C(=NO)C(CC)C(c2ccccc2)NC1c1ccccc1` (stereo not drawn), 0.9 µg/mL (≈ 2.79 µM).
